Data reported in patent publication US20210196731A1, “COMPOSITIONS AND METHODS FOR TREATING OCULAR INFLAMMATION AND OCULAR SCARRING” (priority 2018, published 2021).
“Also recorded” adds a separate entry of the source.

Experiments:
[1] = system: αSMA; assay: Cellular response to individual exogenous ASA-triggered lipid mediators (αSMA western blot); assay type: cell-based, human; details: 48 hrs
Protocol: Cells were lysed in lysis buffer (PhosphoSafe Extraction Reagent, Novagen) containing a protease inhibitor cocktail (P2714, Sigma-Aldrich). Crude protein lysate was quantified using a Pierce BCA protein assay kit (ThermoFisher, Mississauga, ON) and 10 ug from each sample was resolved using a Novex WedgeWell 4-20% tris-glycine gel (Invitrogen). Using an iBlot Gel Transfer Device (IB1001, Invitrogen), the separated protein was transferred to a nitrocellulose membrane (1B301001, iBlot Transfer Stack, Invitrogen) which was then blocked with 5% (w/v) bovine serum albumin (Sigma-Aldrich) in Tris buffered saline (TBST) for 1 hour at room temperature. The membranes were incubated overnight at 4° C. with primary antibody diluted in TBST containing 5% BSA (w/vol). Primary antibodies used were as follows: collagen 1 (ab138492, Abcam), αSMA (ab5694, Abcam), MMP9 (ab38898, Abcam), PPARγ (sc-7273, SantaCruz Biotechnology), SMAD2/3 (ab63672, Abcam), pSMAD2/3 (ab63399, Abcam) and GAPDH (sc-47724, Santa Cruz Biotechnology, Inc.). After incubation with primary antibodies, the blots were washed and hybridized with 1:3000 (v/v) dilutions of the appropriate goat anti-rabbit or anti-mouse IgG conjugated with horseradish peroxidase ([…], respectively, both from Bio-Rad Laboratories, Inc.). Visualization was accomplished by applying WesternBright Quantum chemiluminescent reagent (Advansta, Inc.), with GAPDH used as a protein loading control. Imaging and relative densiometric quantification was accomplished using a ChemiDoc MP System (Bio-Rad Laboratories, Inc.) connected to Image Lab (Version 6, Bio-Rad Laboratories, Inc.).
From the lipid mediator secretion assays, we see that exposure to ASA or APHS±a PLA2-a results in the generation of significant quantities of pro-resolving products 5-HETE, 11-HETE, 15-HETE and/or 17-OHDHA. The aim of this experiment was to assess the effects (both individually and in combination) of these lipid mediators at mitigating the induction of αSMA by aqueous humor growth factors. To this end, multiple primary HTCF cell lines were cultured in DMEM w/10% FBS in 6-well culture plates, incubated at 37 C and 5% CO2, until 80% confluent. The culture media was removed, wells washed with PBS, and then fresh DMEM w/0% FBS was added. After 24 hrs of serum starvation, one of 14 experimental treatments were applied for 48 hrs: 1) vehicle control (DMEM w/0% FBS), and 2) AHGFs (DMEM w/0% FBS and 2 ng/ml each of TGFB1, TGFB2, VEGF, CCN2), and 3-5) AHGFs/5-HETE (DMEM w/0% FBS, 2 ng/ml each of TGFB1, TGFB2, VEGF, CCN2, and 10, 100, or 1000 nM of 5-hydroxyeicosatetraenoic acid), and 6-8) AHGFs/11-HETE (DMEM w/0% FBS, 2 ng/ml each of TGFB1, TGFB2, VEGF, CCN2, and 10, 100, or 1000 nM of 11-hydroxyeicosatetraenoic acid), and 9-11) AHGFs/15-HETE (DMEM w/0% FBS, 2 ng/ml each of TGFB1, TGFB2, VEGF, CCN2, and 10, 100, or 1000 nM of 15-hydroxyeicosatetraenoic acid), and 12-14) AHGFs/17-OHDHA (DMEM w/0% FBS, 2 ng/ml each of TGFB1, TGFB2, VEGF, CCN2, and 10, 100, or 1000 nM of 17-hydroxy-docosahexaenoic acid). After 48 hrs exposure cellular protein lysate was collected and assessed by western blot with primary antibodies for αSMA and GAPDH, as described previously.

[2] = system: HTCFs; assay: Collagen Contraction Assay II (dose dependence); assay type: cell-based, human; details: gentamicin alone, 100-1000 μg/ml, four days (FIG. 8A)
Protocol: (§1) The cell-collagen solution was pipetted gently to ensure homogenous distribution of HTCFs while avoiding the production of air bubbles, then 500 ul were pipetted into each well of a 24-well tray. Collagen constructs were allowed to polymerize at 37 C for 45 minutes before adding low serum culture media containing DMEM, 2% Fetal Bovine Serum (FBS), 1% penicillin/streptomycin (P/S).
Tension was allowed to build up within the tethered matrix at 37 C and 5% CO2 for 72 hours before a sterile spatula was used to detach each collagen construct from the edges of the culture well. Plates were then immediately scanned on a flat bed laser scanner once per 24 hours for a total of 4 days. The surface area of each collagen construct was measured using ImageJ (NIH) and standardized against the baseline surface area measurement to express changes in area as a percentage of original surface area.
The gentamicin concentrations assessed were delivered in a solution contained DMEM with 2% FBS, 1% penicillin/streptomycin and either 100, 250, 500, 750 or 100 μg/ml gentamicin (Sigma-Aldrich, CAT. NO: G1397). The ASA concentrations assessed were delivered in a solution of DMEM with 2% FBS, 1% penicillin/streptomycin and either 500, 1000 or 1500 μg/ml ASA (Sigma-Aldrich, CAT. NO: A5376). […]

[3] = system: HTCFs; assay: Lipid Mediator Secretion Assay II (ASA or APHS with and without gentamicin, LC-MS/MS); assay type: cell-based, human; details: inflammatory cytokine induced HTCFs, gentamicin 250 or 500 μg/ml
Protocol: To this end, as before, multiple primary HTCF cell lines were cultured in DMEM w/10% FBS in 6-well culture plates, incubated at 37° C. and 5% CO2, until 90% confluent. The culture media was removed, wells washed with PBS, and then fresh DMEM w/0% FBS was added. After 24 hrs of serum starvation, fresh DMEM w/0% FBS was added, this time containing a physiologically relevant inflammation/wound healing induction mixture (1 ng/ml each of: IL-1b, TNFa, IFNγ, TGFb). After 12 hrs incubation, the induction media was removed, the wells were washed with PBS and fresh DMEM w/0% FBS was added containing one of ten experimental treatments for an incubation period of 48 hrs: 1) non-induced control (NIC: received DMEM w/0% FBS instead of the induction media), and 2) CytoM1+TGFB1 (DMEM w/0% FBS and 1 ng/ml each of: IL-1b, TNFa, IFNγ, TGFb), and 3) CytoM1/TGFB1/Gent250 (DMEM w/0% FBS, 1 ng/ml each of TGFB1, TGFB2, VEGF, CCN2 and 250 μg/ml gentamicin), and 4) CytoM1/TGFB1/Gent500 (DMEM w/0% FBS, 1 ng/ml each of TGFB1, TGFB2, VEGF, CCN2 and 500 μg/ml gentamicin), and 5) CytoM1/TGFB1/ASA500 (DMEM w/0% FBS, 1 ng/ml each of TGFB1, TGFB2, VEGF, CCN2, and 500 μg/ml ASA), and 6) CytoM1/TGFB1/ASA500/Gent250 (DMEM w/0% FBS, 1 ng/ml each of TGFB1, TGFB2, VEGF, CCN2, 500 μg/ml ASA and 250 μg/ml gentamicin), and 7) CytoM1/TGFB1/ASA1000 (DMEM w/0% FBS, 1 ng/ml each of TGFB1, TGFB2, VEGF, CCN2 and 1000 μg/ml ASA), and 8) CytoM1/TGFB1/ASA1000/Gent500 (DMEM w/0% FBS, 1 ng/ml each of TGFB1, TGFB2, VEGF, CCN2, 1000 μg/ml ASA, and 500 μg/ml gentamicin), and 9) CytoM1/TGFB1/APHS12 (DMEM w/0% FBS, 1 ng/ml each of TGFB1, TGFB2, VEGF, CCN2 and 12 μg/ml o-(acetoxyphenyl)hept-2-ynyl sulfide (APHS), and 10) CytoM1/TGFB1/APHS12/Gent250 (DMEM w/0% FBS, 1 ng/ml each of TGFB1, TGFB2, VEGF, CCN2, 12 μg/ml o-(acetoxyphenyl)hept-2-ynyl sulfide (APHS) and 250 μg/ml gentamicin). At 6, 12, 24 and 48 hrs after addition of the experimental treatments, 250 ul of supernatant was removed from each well, replaced with 250 ul of fresh DMEM w/0% FBS, and stored at −80° C. for subsequent LC-MS/MS analysis. After 48 hrs, the wells were washed with ice cold PBS three times and total cellular protein from the HTCF monolayer was collected for quantification and subsequent western blot analyses. The absolute quantity of protein within each culture well's HTCF monolayer was used as a means to standardize the relative secretion of lipid mediators by HTCFs into the culture well's supernatant.
This is a well-established method to determine the relative activity of cyclooxygenase, acetyl-COX2 and lipoxygenase biosynthetic pathways. In brief, the ratios of the integrated areas of the chromatographic peaks corresponding to each analyte and the integrated areas of the peaks corresponding to each analyte's internal standard (with known absolute quantity) are used to determine the relative quantity of each analyte in a given sample. After supernatant sample collection, 250 ul of methanol containing 100 μg of each deuterated internal standard was added. Samples were then vigorously vortexed and centrifuged at 10,000 g for 10 min before loading onto solid-phase extraction cartridges (Strata-X 33 um Polymeric Reversed Phase, 10 mg, Phenomenex 8B-S100-AAK), that were previously activated with 2 ml methanol and rinsed with 2 ml water. […] After washing with 5 ml water, extracts were eluted with 1 ml methanol. Solvent was then evaporated under vacuum in a SpeedVac centrifuge, and the extract was resuspended in 100 ul acetonitrile/water 60:40 (v/v). An aliquot of 20 ul was injected into the LC-MS/MS system for analysis. […] A Sciex Triple Quad 6500+ mass spectrometer with multiple reaction monitoring was used in negative ion mode. The chromatographic profile of the ion count for each m/z transition was monitored, and the area under the peaks (ion intensity vs elution time) was integrated using commercial software (MultiQuant, Sciex).

[4] = system: HTCFs; assay: Collagen Contraction Assay IV (AHGF induced, ASA and gentamicin vs mitomycin C); assay type: cell-based, human; details: ASA 1500 μg/ml and/or gentamicin 750 μg/ml; comparator mitomycin C 0.2 mg/ml for 4 minutes
Protocol: as §1
Tension was allowed to build up within the tethered matrix at 37 C and 5% CO2 for 72 hours before a sterile spatula was used to detach each collagen construct from the edges of the culture well. Plates were then immediately scanned on a flat bed laser scanner and then periodically for a total of 4 days. The surface area of each collagen construct was measured using ImageJ (NIH) and standardized against the baseline surface area measurement to express changes in area as a percentage of original surface area.
In this modification of the assay, AHGFs are added to all culture media the collagen constructs are exposed to—from casting of the collagen constructs to the conclusion of contraction. The experimental treatment solutions—all also containing AHGFs—were added 30 minutes prior to detaching the collagen constructs from the culture wells and remained until experimental conclusion. […] DMEM w/2% FBS was added for the remainder of the experiment).

[5] = system: human Tenon's capsule fibroblasts (HTCFs); assay: Collagen Contraction Assay I (delayed release fibroblast populated collagen lattice); assay type: cell-based; details: gentamicin 1000 μg/ml and/or ASA 2000 μg/ml, 15 minutes twice daily, four day assay, vs vehicle control
Protocol: The delayed release fibroblast populated collagen lattice model was used to assess inhibition of gel contraction [58] by ASA and gentamicin. […] Cell free collagen lattices were prepared identically, however to isolate the effects of HTCFs alone on collagen, constructs without HTCFs were cast as a negative control. The cell-collagen solution was pipetted gently to ensure homogenous distribution of HTCFs while avoiding the production of air bubbles, then 500 ul were pipetted into each well of a 24-well tray. Collagen constructs were allowed to polymerize at 37 C for 45 minutes before adding low serum culture media containing DMEM, 2% Fetal Bovine Serum (FBS), 1% penicillin/streptomycin (P/S).
Tension was allowed to build up within the tethered matrix at 37 C and 5% CO2 for 72 hours before a sterile spatula was used to detach each collagen construct from the edges of the culture well. Plates were then immediately scanned on a flat bed laser scanner and then once per hour for the first 12 hours, then daily for a total of 4 days. The surface area of each collagen construct was measured using ImageJ (NIH) and standardized against the baseline surface area measurement to express changes in area as a percentage of original surface area.
Vehicle control treatment solution comprised of DMEM with 2% FBS and 1% penicillin/streptomycin. The gentamicin treatment solution contained DMEM with 2% FBS, 1% penicillin/streptomycin and 1000 μg/ml gentamicin (w/vol) (Sigma-Aldrich, CAT. NO: G1397). The ASA treatment solution contained DMEM with 2% FBS, 1% penicillin/streptomycin and 2000 μg/ml ASA (w/vol) (Sigma-Aldrich, CAT. NO: A5376). The gentamicin-ASA combination treatment solution (Gent+ASA) contained DMEM with 2% FBS, 1% penicillin/streptomycin, 1000 μg/ml gentamicin (w/vol.) and 2000 μg/ml ASA (w/vo).
Culture media was removed from collagen constructs twice daily and replaced with one of the four treatment solutions for a duration of 15 minutes. […]

Question: What does the source list for `CCCCC/C=C\C/C=C\C/C=C\C=C\[C@@H](O)CCCC(=O)O` [5-HETE, 5-hydroxyeicosatetraenoic acid]?
Answer: AHGF-induced expression of αSMA ([1]; lipid mediator at 100 nM): significantly reduced; AHGF-induced expression of αSMA ([1]; lipid mediator at 1000 nM): significantly reduced

Question: `CCCCC/C=C\C=C\C(O)C/C=C\C/C=C\CCCC(=O)O` (stereo not shown) [11-HETE, 11-hydroxyeicosatetraenoic acid] was tested. Which “AHGF-induced αSMA expression” value ([1]; lipid mediator at 10, 100, or 1000 nM) did it give?
Answer: did not significantly affect AHGF-induced αSMA expression

Question: How did the “AHGF-induced expression of αSMA” value ([1]; lipid mediator at 100 nM) turn out when `CCCCC[C@H](O)/C=C/C=C\C/C=C\C/C=C\CCCC(=O)O` [15-HETE, 15-hydroxyeicosatetraenoic acid] was run?
Answer: significantly reduced

Question: Which results are given for `CC/C=C\CC(O)/C=C/C=C\C/C=C\C/C=C\C/C=C\CCC(=O)O` (stereo not shown) [17-OHDHA, 17-hydroxy-docosahexaenoic acid]?
Answer: AHGF-induced expression of αSMA ([1]; lipid mediator at 100 nM): significantly reduced; AHGF-induced expression of αSMA ([1]; lipid mediator at 1000 nM): significantly reduced

Question: gentamicin was tested. Which HTCF-mediated collagen contraction [2] did it give?
Answer: no significant treatment effects found; also recorded: no significant effect on HTCF-mediated collagen contraction

Question: And the “secretion of PUFA precursors: AA, EPA and DHA” value [3]?
Answer: significantly increase the secretion of PUFA precursors

Question: What about the “AHGF induced, HTCF-mediated collagen contraction” value [4] of the same molecule?
Answer: no statistically significant effect on collagen contraction

Question: What about the “HTCF mediated collagen contraction” value [5] of the same molecule?
Answer: did not affect collagen contraction until the second day of the four day assay
